# Key:
# Format in all cases: functional
# [1] = test system: Ostrinia nubilalis; assay: Antifeedant activity against Ostrinia nubilalis (European corn borer) larvae assessed as excretion rate at 0.20% of diet dry weight after 5 days relative to control
# [2] = test system: Ostrinia nubilalis; assay: Effect on growth of female Ostrinia nubilalis (European corn borer) larvae assessed as pupal weight at 0.10% of diet dry weight after 6 days relative to control
# [3] = test system: Ostrinia nubilalis; assay: Effect on growth of male Ostrinia nubilalis (European corn borer) larvae assessed as pupal weight at 0.001% of diet dry weight after 6 days relative to control
# [4] = test system: Ostrinia nubilalis; assay: Effect on growth of male Ostrinia nubilalis (European corn borer) larvae assessed as adult emergence at 1% of diet dry weight after 6 days relative to control
# [5] = test system: Ostrinia nubilalis; assay: Antifeedant activity against Ostrinia nubilalis (European corn borer) larvae assessed as feeding rate at 0.60% of diet dry weight after 5 days relative to control
# [6] = test system: Ostrinia nubilalis; assay: Antifeedant activity against Ostrinia nubilalis (European corn borer) larvae assessed as amount of food consumed at 0.40% of diet dry weight after 5 days relative to control
# [7] = test system: Ostrinia nubilalis; assay: Antifeedant activity against Ostrinia nubilalis (European corn borer) larvae assessed as amount excreted at 0.60% of diet dry weight after 5 days relative to control
# [8] = test system: Ostrinia nubilalis; assay: Effect on growth of female Ostrinia nubilalis (European corn borer) larvae assessed as pupal weight at 1% of diet dry weight after 6 days relative to control
# [9] = test system: Ostrinia nubilalis; assay: Effect on growth of female Ostrinia nubilalis (European corn borer) larvae assessed as adult emergence at 0.001% of diet dry weight after 6 days relative to control
# [10] = test system: Ostrinia nubilalis; assay: Antifeedant activity against Ostrinia nubilalis (European corn borer) larvae assessed as growth rate at 0.20% of diet dry weight after 5 days relative to control
# [11] = test system: Ostrinia nubilalis; assay: Effect on growth of male Ostrinia nubilalis (European corn borer) larvae assessed as pupal duration at 0.10% of diet dry weight after 6 days relative to control
# [12] = test system: Ostrinia nubilalis; assay: Antifeedant activity against Ostrinia nubilalis (European corn borer) larvae assessed as growth rate at 0.80% of diet dry weight after 5 days relative to control
# [13] = test system: Ostrinia nubilalis; assay: Effect on growth of female Ostrinia nubilalis (European corn borer) larvae assessed as adult emergence at 0.01% of diet dry weight after 6 days relative to control
# [14] = test system: Ostrinia nubilalis; assay: Antifeedant activity against Ostrinia nubilalis (European corn borer) larvae assessed as feeding rate at 0.20% of diet dry weight after 5 days relative to control
# [15] = test system: Ostrinia nubilalis; assay: Antifeedant activity against Ostrinia nubilalis (European corn borer) larvae assessed as growth rate at 0.10% of diet dry weight after 5 days relative to control
# [16] = test system: Ostrinia nubilalis; assay: Antifeedant activity against Ostrinia nubilalis (European corn borer) larvae assessed as excretion rate at 0.10% of diet dry weight after 5 days relative to control
# [17] = test system: Ostrinia nubilalis; assay: Effect on growth of female Ostrinia nubilalis (European corn borer) larvae assessed as larval duration at 0.10% of diet dry weight after 6 days relative to control
# [18] = test system: Ostrinia nubilalis; assay: Antifeedant activity against Ostrinia nubilalis (European corn borer) larvae assessed as feeding rate at 0.80% of diet dry weight after 5 days relative to control
# [19] = test system: Ostrinia nubilalis; assay: Effect on growth of male Ostrinia nubilalis (European corn borer) larvae assessed as larval duration at 0.001% of diet dry weight after 6 days relative to control
# [20] = test system: Ostrinia nubilalis; assay: Antifeedant activity against Ostrinia nubilalis (European corn borer) larvae assessed as amount excreted at 0.10% of diet dry weight after 5 days relative to control
# [21] = test system: Ostrinia nubilalis; assay: Effect on growth of female Ostrinia nubilalis (European corn borer) larvae assessed as adult emergence at 0.10% of diet dry weight after 6 days relative to control
# [22] = test system: Ostrinia nubilalis; assay: Insecticidal activity against Ostrinia nubilalis (European corn borer) larvae assessed as mortality at 0.10 to 0.80% of diet dry weight after 5 days relative to control
# [23] = test system: Ostrinia nubilalis; assay: Antifeedant activity against Ostrinia nubilalis (European corn borer) larvae assessed as amount of food consumed at 0.10% of diet dry weight after 5 days relative to control
# [24] = test system: Ostrinia nubilalis; assay: Antifeedant activity against Ostrinia nubilalis (European corn borer) larvae assessed as amount of weight gain by the insect at 0.80% of diet dry weight after 5 days relative to control
# [25] = test system: Ostrinia nubilalis; assay: Effect on growth of male Ostrinia nubilalis (European corn borer) larvae assessed as pupal duration at 0.001% of diet dry weight after 6 days relative to control
# [26] = test system: Ostrinia nubilalis; assay: Antifeedant activity against Ostrinia nubilalis (European corn borer) larvae assessed as amount excreted at 0.80% of diet dry weight after 5 days relative to control
# [27] = test system: Ostrinia nubilalis; assay: Effect on growth of male Ostrinia nubilalis (European corn borer) larvae assessed as larval duration at 0.10% of diet dry weight after 6 days relative to control
# [28] = test system: Ostrinia nubilalis; assay: Effect on growth of female Ostrinia nubilalis (European corn borer) larvae assessed as pupal duration at 0.001% of diet dry weight after 6 days relative to control
# [29] = test system: Ostrinia nubilalis; assay: Antifeedant activity against Ostrinia nubilalis (European corn borer) larvae assessed as excretion rate at 0.60% of diet dry weight after 5 days relative to control
# [30] = test system: Ostrinia nubilalis; assay: Antifeedant activity against Ostrinia nubilalis (European corn borer) larvae assessed as amount of weight gain by the insect at 0.20% of diet dry weight after 5 days relative to control
# [31] = test system: Ostrinia nubilalis; assay: Antifeedant activity against Ostrinia nubilalis (European corn borer) larvae assessed as amount of food consumed at 0.80% of diet dry weight after 5 days relative to control
# [32] = test system: Ostrinia nubilalis; assay: Effect on growth of female Ostrinia nubilalis (European corn borer) larvae assessed as pupal weight at 0.001% of diet dry weight after 6 days relative to control
# [33] = test system: Ostrinia nubilalis; assay: Antifeedant activity against Ostrinia nubilalis (European corn borer) larvae assessed as excretion rate at 0.40% of diet dry weight after 5 days relative to control
# [34] = test system: Ostrinia nubilalis; assay: Antifeedant activity against Ostrinia nubilalis (European corn borer) larvae assessed as amount of weight gain by the insect at 0.10% of diet dry weight after 5 days relative to control
# [35] = test system: Ostrinia nubilalis; assay: Effect on growth of male Ostrinia nubilalis (European corn borer) larvae assessed as adult emergence at 0.01% of diet dry weight after 6 days relative to control
# [36] = test system: Ostrinia nubilalis; assay: Effect on growth of female Ostrinia nubilalis (European corn borer) larvae assessed as pupal weight at 0.01% of diet dry weight after 6 days relative to control
# [37] = test system: Ostrinia nubilalis; assay: Effect on growth of male Ostrinia nubilalis (European corn borer) larvae assessed as pupal duration at 1% of diet dry weight after 6 days relative to control
# [38] = test system: Ostrinia nubilalis; assay: Antifeedant activity against Ostrinia nubilalis (European corn borer) larvae assessed as amount of food consumed at 0.60% of diet dry weight after 5 days relative to control
# [39] = test system: Ostrinia nubilalis; assay: Effect on growth of female Ostrinia nubilalis (European corn borer) larvae assessed as pupal duration at 0.10% of diet dry weight after 6 days relative to control
# [40] = test system: Ostrinia nubilalis; assay: Antifeedant activity against Ostrinia nubilalis (European corn borer) larvae assessed as amount excreted at 0.20% of diet dry weight after 5 days relative to control
# [41] = test system: Ostrinia nubilalis; assay: Effect on growth of female Ostrinia nubilalis (European corn borer) larvae assessed as larval duration at 1% of diet dry weight after 6 days relative to control
# [42] = test system: Ostrinia nubilalis; assay: Effect on growth of female Ostrinia nubilalis (European corn borer) larvae assessed as larval duration at 0.01% of diet dry weight after 6 days relative to control
# [43] = test system: Ostrinia nubilalis; assay: Effect on growth of male Ostrinia nubilalis (European corn borer) larvae assessed as larval duration at 1% of diet dry weight after 6 days relative to control
# [44] = test system: Ostrinia nubilalis; assay: Antifeedant activity against Ostrinia nubilalis (European corn borer) larvae assessed as growth rate at 0.60% of diet dry weight after 5 days relative to control
# [45] = test system: Ostrinia nubilalis; assay: Effect on growth of female Ostrinia nubilalis (European corn borer) larvae assessed as larval duration at 0.001% of diet dry weight after 6 days relative to control
# [46] = test system: Ostrinia nubilalis; assay: Effect on growth of female Ostrinia nubilalis (European corn borer) larvae assessed as adult emergence at 1% of diet dry weight after 6 days relative to control
# [47] = test system: Ostrinia nubilalis; assay: Effect on growth of female Ostrinia nubilalis (European corn borer) larvae assessed as pupal duration at 0.01% of diet dry weight after 6 days relative to control
# [48] = test system: Ostrinia nubilalis; assay: Antifeedant activity against Ostrinia nubilalis (European corn borer) larvae assessed as amount of food consumed at 0.20% of diet dry weight after 5 days relative to control
# [49] = test system: Ostrinia nubilalis; assay: Antifeedant activity against Ostrinia nubilalis (European corn borer) larvae assessed as excretion rate at 0.80% of diet dry weight after 5 days relative to control
# [50] = test system: Ostrinia nubilalis; assay: Antifeedant activity against Ostrinia nubilalis (European corn borer) larvae assessed as feeding rate at 0.10% of diet dry weight after 5 days relative to control
# [51] = test system: Ostrinia nubilalis; assay: Effect on growth of male Ostrinia nubilalis (European corn borer) larvae assessed as pupal weight at 1% of diet dry weight after 6 days relative to control
# [52] = test system: Ostrinia nubilalis; assay: Effect on growth of male Ostrinia nubilalis (European corn borer) larvae assessed as pupal weight at 0.01% of diet dry weight after 6 days relative to control
# [53] = test system: Ostrinia nubilalis; assay: Effect on growth of female Ostrinia nubilalis (European corn borer) larvae assessed as pupal duration at 1% of diet dry weight after 6 days relative to control
# [54] = test system: Ostrinia nubilalis; assay: Antifeedant activity against Ostrinia nubilalis (European corn borer) larvae assessed as amount of weight gain by the insect at 0.40% of diet dry weight after 5 days relative to control
# [55] = test system: Ostrinia nubilalis; assay: Effect on growth of male Ostrinia nubilalis (European corn borer) larvae assessed as pupal duration at 0.01% of diet dry weight after 6 days relative to control
# [56] = test system: Ostrinia nubilalis; assay: Antifeedant activity against Ostrinia nubilalis (European corn borer) larvae assessed as growth rate at 0.40% of diet dry weight after 5 days relative to control
# [57] = test system: Ostrinia nubilalis; assay: Effect on growth of male Ostrinia nubilalis (European corn borer) larvae assessed as larval duration at 0.01% of diet dry weight after 6 days relative to control
# [58] = test system: Ostrinia nubilalis; assay: Effect on growth of male Ostrinia nubilalis (European corn borer) larvae assessed as adult emergence at 0.001% of diet dry weight after 6 days relative to control
# [59] = test system: Ostrinia nubilalis; assay: Effect on growth of male Ostrinia nubilalis (European corn borer) larvae assessed as adult emergence at 0.10% of diet dry weight after 6 days relative to control
# [60] = test system: Ostrinia nubilalis; assay: Antifeedant activity against Ostrinia nubilalis (European corn borer) larvae assessed as amount of weight gain by the insect at 0.60% of diet dry weight after 5 days relative to control
# [61] = test system: Ostrinia nubilalis; assay: Effect on growth of male Ostrinia nubilalis (European corn borer) larvae assessed as pupal weight at 0.10% of diet dry weight after 6 days relative to control
# [62] = test system: Ostrinia nubilalis; assay: Antifeedant activity against Ostrinia nubilalis (European corn borer) larvae assessed as amount excreted at 0.40% of diet dry weight after 5 days relative to control
# [63] = test system: Ostrinia nubilalis; assay: Antifeedant activity against Ostrinia nubilalis (European corn borer) larvae assessed as feeding rate at 0.40% of diet dry weight after 5 days relative to control
compound,measurement,setting,value
CC(C)=CCc1c2c(c3occ(-c4ccc(O)c(O)c4)c(=O)c3c1O)C=CC(C)(C)O2 [POMIFERIN],Activity,[1],-7%
same,Activity,[2],100 mg
same,Activity,[3],76 mg
same,Activity,[4],60%
same,Activity,[5],23.2%
same,Activity,[6],34.2%
same,Activity,[7],16.1%
same,Activity,[8],109 mg
same,Activity,[9],50%
same,Activity,[10],4.7%
same,Time,[11],7.5 days
same,Activity,[12],12%
same,Activity,[13],54%
same,Activity,[14],34.6%
same,Activity,[15],13.3%
same,Activity,[16],0%
same,Time,[17],12.1 days
same,Activity,[18],20.7%
same,Time,[19],10.7 days
same,Activity,[20],30.4%
same,Activity,[21],67%
same,mortality,[22],<=11%
same,Activity,[23],33.2%
same,Activity,[24],36.5%
same,Time,[25],7 days
same,Activity,[26],23%
same,Time,[27],11.1 days
same,Time,[28],6.7 days
same,Activity,[29],-12%
same,Activity,[30],17.7%
same,Activity,[31],40.1%
same,Activity,[32],85 mg
same,Activity,[33],-12%
same,Activity,[34],38.1%
same,Activity,[35],67%
same,Activity,[36],96 mg
same,Time,[37],6.7 days
same,Activity,[38],38.5%
same,Time,[39],6.3 days
same,Activity,[40],8.2%
same,Time,[41],12.9 days
same,Time,[42],11.7 days
same,Time,[43],11.2 days
same,Activity,[44],10%
same,Time,[45],11.7 days
same,Activity,[46],67%
same,Time,[47],7 days
same,Activity,[48],36.9%
same,Activity,[49],-10%
same,Activity,[50],-1%
same,Activity,[51],72 mg
same,Activity,[52],72 mg
same,Time,[53],6.4 days
same,Activity,[54],18.2%
same,Time,[55],7.2 days
same,Activity,[56],5.3%
same,Time,[57],10.9 days
same,Activity,[58],78%
same,Activity,[59],25%
same,Activity,[60],31.5%
same,Activity,[61],74 mg
same,Activity,[62],5.4%
same,Activity,[63],29%

# Source: ChEMBL document CHEMBL3045511, “Effects of Two Isoflavonoids, Osajin and Pomiferin, from Maclura pomifera for Growth and Feeding Disruption in Ostrinia nubilalis” (2001)
